Assay [1] addresses T1, WRN [UniPro: Q14191 (WRN_HUMAN), N500-C946] (Homo sapiens (Human), UniProt Q14191). Briefly: WRN ATPase assay (ADP-Glo). Type of assay: biochemical. The conditions noted are these: WRN enzymatic activity assay. On the technique in general: ADP-Glo first removes unused ATP, then detects ADP through luciferase.
For assay [2], the target named is T1, WRN [UniPro: Q14191 (WRN_HUMAN), N500-C946]. Nature of the assay: WRN unwinding assay (FORKF DNA, fluorescence). Type of assay: biochemical. As to conditions: Table 14.

The structures appear in SMILES notation.

As usually defined, the IC50 is the concentration that inhibits the measured activity by half. Higher therefore signals weaker potency in that assay.

T1 sequence (Q14191 500-946): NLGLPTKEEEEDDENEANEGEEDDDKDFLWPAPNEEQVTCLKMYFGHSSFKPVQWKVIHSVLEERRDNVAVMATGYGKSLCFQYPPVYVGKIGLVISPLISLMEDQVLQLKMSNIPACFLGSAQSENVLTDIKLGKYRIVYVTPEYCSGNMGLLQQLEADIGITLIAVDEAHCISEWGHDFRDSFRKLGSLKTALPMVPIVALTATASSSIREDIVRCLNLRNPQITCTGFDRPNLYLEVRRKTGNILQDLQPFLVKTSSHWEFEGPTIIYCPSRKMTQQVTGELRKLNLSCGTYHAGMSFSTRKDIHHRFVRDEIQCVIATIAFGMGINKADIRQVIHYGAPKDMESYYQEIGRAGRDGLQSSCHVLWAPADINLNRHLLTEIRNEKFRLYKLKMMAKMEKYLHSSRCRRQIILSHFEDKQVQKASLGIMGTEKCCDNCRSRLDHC

On to `CCc1c(N2CCN(C(=O)CNC(=O)c3cc(N(C)C)ccc3F)CC2)c(=O)n2nc(C3=CCOCC3)nc2n1CC(=O)Nc1ccc(C(F)(F)F)cc1F` [Example 224, N-(2-(4-(2-(3,6-Dihydro-2H-pyran-4-yl)-5-ethyl-4-(2-((2-fluoro-4-(trifluoromethyl)phenyl)amino)-2-oxoethyl)-7-oxo-4,7-dihydro-[1,2,4]triazolo[1,5-a]pyrimidin-6-yl)piperazin-1-yl)-2-oxoethyl)-5-(dimethylamino)-2-fluorobenzamide], for which the IC50 was below 100 nM in assay [1] and 100 to 1000 nM in assay [2].
`CCc1c(N2CCN(C(=O)c3cc4c(O)ccnc4o3)CC2)c(=O)n2nc(C3=CCOCC3)nc2n1CC(=O)Nc1ccc(C(F)(F)F)cc1Cl` [Example 88, N-(2-Chloro-4-(trifluoromethyl)phenyl)-2-(2-(3,6-dihydro-2H-pyran-4-yl)-5-ethyl-6-(4-(4-hydroxyfuro[2,3-b]pyridine-2-carbonyl)piperazin-1-yl)-7-oxo-[1,2,4]triazolo[1,5-a]pyrimidin-4(7H)-yl)acetamide]: the 50% inhibitory concentration (IC50) in assay [1] and in assay [2] was below 100 nM in each case.
Consider `CCc1c(N2CCN(C(=O)CNC(=O)C3CC3)CC2)c(=O)n2nc(C3=CCOCC3)nc2n1CC(=O)Nc1ccc(C(F)(F)F)cc1Cl` [Example 165, N-(2-(4-(4-(2-((2-Chloro-4-(trifluoromethyl)phenyl)amino)-2-oxoethyl)-2-(3,6-dihydro-2H-pyran-4-yl)-5-ethyl-7-oxo-4,7-dihydro-[1,2,4]triazolo[1,5-a]pyrimidin-6-yl)piperazin-1-yl)-2-oxoethyl)cyclopropanecarboxamide], for which the IC50 in assay [1] and in assay [2] was below 100 nM throughout.
Regarding `CCc1c(N2CCN(C(=O)CNC(=O)N3CCc4ccccc43)CC2)c(=O)n2nc(C3=CCOCC3)nc2n1CC(=O)Nc1ccc(C(F)(F)F)cc1Cl` [Example 182, N-(2-(4-(4-(2-((2-Chloro-4-(trifluoromethyl)phenyl)amino)-2-oxoethyl)-2-(3,6-dihydro-2H-pyran-4-yl)-5-ethyl-7-oxo-4,7-dihydro-[1,2,4]triazolo[1,5-a]pyrimidin-6-yl)piperazin-1-yl)-2-oxoethyl) indoline-1-carboxamide], the IC50 in assay [1] and in assay [2] was below 100 nM each time.
Take `CCc1c(N2CCN(C(=O)c3ncc4ccn(C)c4c3O)CC2)c(=O)n2nc(C3=CCOCC3)nc2n1CC(=O)Nc1ccc(C(F)(F)F)cc1Cl` [Example 203, N-(2-Chloro-4-(trifluoromethyl)phenyl)-2-(2-(3,6-dihydro-2H-pyran-4-yl)-5-ethyl-6-(4-(7-hydroxy-1-methyl-1H-pyrrolo[3,2-c]pyridine-6-carbonyl)piperazin-1-yl)-7-oxo-[1,2,4]triazolo[1,5-a]pyrimidin-4(7H)-yl)acetamide]: the IC50 in assay [1] and in assay [2] was below 100 nM throughout.
Turning to `CCC(=O)NS(=O)(=O)N1CCN(c2c(CC)n(CC(=O)Nc3ccc(C(F)(F)F)cc3Cl)c3nc(C4=CCOCC4)nn3c2=O)CC1` [Example 29, N-((4-(4-(2-((2-Chloro-4-(trifluoromethyl)phenyl)amino)-2-oxoethyl)-2-(3,6-dihydro-2H-pyran-4-yl)-5-ethyl-7-oxo-4,7-dihydro-[1,2,4]triazolo[1,5-a]pyrimidin-6-yl)piperazin-1-yl)sulfonyl) propionamide], the 50% inhibitory concentration (IC50) in assay [1] and in assay [2] was below 100 nM each time.
As to `CCc1c(N2CCN(C(=O)CNC(=O)c3cccc(O)c3F)CC2)c(=O)n2nc(C3=CCOCC3)nc2n1CC(=O)Nc1ccc(C(F)(F)F)cc1Cl` [Example 293, N-(2-(4-(4-(2-((2-Chloro-4-(trifluoromethyl)phenyl)amino)-2-oxoethyl)-2-(3,6-dihydro-2H-pyran-4-yl)-5-ethyl-7-oxo-4,7-dihydro-[1,2,4]triazolo[1,5-a]pyrimidin-6-yl)piperazin-1-yl)-2-oxoethyl)-2-fluoro-3-hydroxybenzamide], the concentration for half-maximal inhibition (IC50) in assay [1] and in assay [2] was below 100 nM each time.
In the case of `CCc1c(N2CCN(C(=O)CNC(=O)c3ccccc3F)CC2)c(=O)n2nc(C3=CCOCC3)nc2n1CC(=O)Nc1cc(Br)cs1` [Example 161, N-(2-(4-(4-(2-((4-Bromothiophen-2-yl)amino)-2-oxoethyl)-2-(3,6-dihydro-2H-pyran-4-yl)-5-ethyl-7-oxo-4,7-dihydro-[1,2,4]triazolo[1,5-a]pyrimidin-6-yl)piperazin-1-yl)-2-oxoethyl)-2-fluorobenzamide], the 50% inhibitory concentration (IC50) in assay [1] and in assay [2] was below 100 nM each time.
`CCc1c(N2CCN(C(=O)CNC(=O)c3cnc4c(ccn4C)c3O)CC2)c(=O)n2nc(C3=CCOCC3)nc2n1CC(=O)Nc1ccc(C(F)(F)F)cc1Cl` [Example 120, N-(2-(4-(4-(2-((2-Chloro-4-(trifluoromethyl)phenyl)amino)-2-oxoethyl)-2-(3,6-dihydro-2H-pyran-4-yl)-5-ethyl-7-oxo-4,7-dihydro-[1,2,4]triazolo[1,5-a]pyrimidin-6-yl)piperazin-1-yl)-2-oxoethyl)-4-hydroxy-1-methyl-1H-pyrrolo[2,3-b]pyridine-5-carboxamide]: the IC50 is 100 to 1000 nM in assay [1] and below 100 nM in assay [2].
The like results for `CCc1c(N2CCN(C(=O)CNC(=O)c3cc(N)ccc3F)CC2)c(=O)n2nc(C3=CCOCC3)nc2n1CC(=O)Nc1ccc(C(F)(F)F)cc1Cl` [Example 372, 5-Amino-N-(2-(4-(4-(2-((2-chloro-4-(trifluoromethyl)phenyl)amino)-2-oxoethyl)-2-(3,6-dihydro-2H-pyran-4-yl)-5-ethyl-7-oxo-4,7-dihydro-[1,2,4]triazolo[1,5-a]pyrimidin-6-yl)piperazin-1-yl)-2-oxoethyl)-2-fluorobenzamide] were, in that order, below 100 nM and below 100 nM.
The corresponding values for `CCc1c(N2CCN(C(=O)CNC(=O)c3ccon3)CC2)c(=O)n2nc(C3=CCOCC3)nc2n1CC(=O)Nc1ccc(C(F)(F)F)cc1Cl` [Example 371, N-(2-(4-(4-(2-((2-Chloro-4-(trifluoromethyl)phenyl)amino)-2-oxoethyl)-2-(3,6-dihydro-2H-pyran-4-yl)-5-ethyl-7-oxo-4,7-dihydro-[1,2,4]triazolo[1,5-a]pyrimidin-6-yl)piperazin-1-yl)-2-oxoethyl) isoxazole-3-carboxamide] are below 100 nM and below 100 nM.
The corresponding values for `CCc1c(N2CCN(C(=O)c3ccnc(=O)[nH]3)CC2)c(=O)n2nc(C3=CCOCC3)nc2n1CC(=O)Nc1ccc(C(F)(F)F)cc1Cl` [Example 79, N-(2-Chloro-4-(trifluoromethyl)phenyl)-2-(2-(3,6-dihydro-2H-pyran-4-yl)-5-ethyl-7-oxo-6-(4-(2-oxo-2,3-dihydropyrimidine-4-carbonyl)piperazin-1-yl)-[1,2,4]triazolo[1,5-a]pyrimidin-4(7H)-yl)acetamide] are 100 to 1000 nM and below 100 nM.
Take `CCc1c(N2CCN(C(=O)c3cc4sccc4[nH]c3=O)CC2)c(=O)n2nc(C3=CCOCC3)nc2n1CC(=O)Nc1ccc(C(F)(F)F)cc1Cl` [Example 197, N-(2-Chloro-4-(trifluoromethyl)phenyl)-2-(2-(3,6-dihydro-2H-pyran-4-yl)-5-ethyl-7-oxo-6-(4-(5-oxo-4,5-dihydrothieno[3,2-b]pyridine-6-carbonyl)piperazin-1-yl)-[1,2,4]triazolo[1,5-a]pyrimidin-4(7H)-yl)acetamide]: the IC50 in assay [1] and in assay [2] was below 100 nM in each case.
In the case of `CCc1c(N2CCN(C(=O)CNC(=O)c3nc(NC)ccc3F)CC2)c(=O)n2nc(C3=CCOCC3)nc2n1CC(=O)Nc1ccc(C(F)(F)F)cc1Cl` [Example 361, N-(2-(4-(4-(2-((2-Chloro-4-(trifluoromethyl)phenyl)amino)-2-oxoethyl)-2-(3,6-dihydro-2H-pyran-4-yl)-5-ethyl-7-oxo-4,7-dihydro-[1,2,4]triazolo[1,5-a]pyrimidin-6-yl)piperazin-1-yl)-2-oxoethyl)-3-fluoro-6-(methylamino) picolinamide], the IC50 in assay [1] and in assay [2] was below 100 nM throughout.
Turning to `CCc1c(N2CCN(C(=O)CNC(=O)c3cccnc3O)CC2)c(=O)n2nc(C3=CCOCC3)nc2n1CC(=O)Nc1ccc(C(F)(F)F)cc1Cl` [Example 282, N-(2-(4-(4-(2-((2-Chloro-4-(trifluoromethyl)phenyl)amino)-2-oxoethyl)-2-(3,6-dihydro-2H-pyran-4-yl)-5-ethyl-7-oxo-4,7-dihydro-[1,2,4]triazolo[1,5-a]pyrimidin-6-yl)piperazin-1-yl)-2-oxoethyl)-2-hydroxynicotinamide], the IC50 in assay [1] and in assay [2] was below 100 nM in each case.
As for `CCc1c(N2CCN(C(=O)CNC)CC2)c(=O)n2nc(C3=CCOCC3)nc2n1CC(=O)Nc1ccc(C(F)(F)F)cc1Cl` [Example 134, N-(2-Chloro-4-(trifluoromethyl)phenyl)-2-(2-(3,6-dihydro-2H-pyran-4-yl)-5-ethyl-6-(4-(methylglycyl)piperazin-1-yl)-7-oxo-[1,2,4]triazolo[1,5-a]pyrimidin-4(7H)-yl)acetamide], the IC50 in assay [1] and in assay [2] was below 100 nM in each case.
As for `CCc1c(N2CCN(C(=O)CNC(=O)c3cnccc3O)CC2)c(=O)n2nc(C3=CCOCC3)nc2n1CC(=O)Nc1ccc(C(F)(F)F)cc1Cl` [Example 280, N-(2-(4-(4-(2-((2-Chloro-4-(trifluoromethyl)phenyl)amino)-2-oxoethyl)-2-(3,6-dihydro-2H-pyran-4-yl)-5-ethyl-7-oxo-4,7-dihydro-[1,2,4]triazolo[1,5-a]pyrimidin-6-yl)piperazin-1-yl)-2-oxoethyl)-4-hydroxynicotinamide], the IC50 in assay [1] and in assay [2] was below 100 nM in each case.
`CCNC(=O)NCC(=O)N1CCN(c2c(CC)n(CC(=O)Nc3ccc(C(F)(F)F)cc3Cl)c3nc(C4=CCOCC4)nn3c2=O)CC1` [Example 41, N-(2-Chloro-4-(trifluoromethyl)phenyl)-2-(2-(3,6-dihydro-2H-pyran-4-yl)-5-ethyl-6-(4-((ethylcarbamoyl)glycyl)piperazin-1-yl)-7-oxo-[1,2,4]triazolo[1,5-a]pyrimidin-4(7H)-yl)acetamide]: the half-inhibitory concentration (IC50) in assay [1] and in assay [2] was below 100 nM each time.

The values above are taken from patent US20260015358A1, “BICYCLIC DERIVATIVES, COMPOSITIONS AND USES THEREOF” (Danatlas Pharmaceuticals Co., Ltd., priority 2023, published 2026).
